{
  "source": "patent US20160051533A1",
  "about": "“DIAGNOSIS AND PHARMACOLOGICAL TREATMENT OF SEASONAL AFFECTIVE DISORDER AND SYMPTOMS OF SEASONALITY” (Ladd Research LLC, priority 2014, published 2016)",
  "key": {"Wistar female rats [1]": {"tested_on": "Wistar female rats", "test": "Symptoms noticed after administration", "format": "in vivo, rat", "conditions": "also seen with 20% DMSO vehicle; stated to be induced by DMSO", "description": "No other symptom was noticed."}, "OxR2": {"target": "T1, OxR2 (Homo sapiens, UniProt O43614)", "T1 sequence (O43614 1-444)": "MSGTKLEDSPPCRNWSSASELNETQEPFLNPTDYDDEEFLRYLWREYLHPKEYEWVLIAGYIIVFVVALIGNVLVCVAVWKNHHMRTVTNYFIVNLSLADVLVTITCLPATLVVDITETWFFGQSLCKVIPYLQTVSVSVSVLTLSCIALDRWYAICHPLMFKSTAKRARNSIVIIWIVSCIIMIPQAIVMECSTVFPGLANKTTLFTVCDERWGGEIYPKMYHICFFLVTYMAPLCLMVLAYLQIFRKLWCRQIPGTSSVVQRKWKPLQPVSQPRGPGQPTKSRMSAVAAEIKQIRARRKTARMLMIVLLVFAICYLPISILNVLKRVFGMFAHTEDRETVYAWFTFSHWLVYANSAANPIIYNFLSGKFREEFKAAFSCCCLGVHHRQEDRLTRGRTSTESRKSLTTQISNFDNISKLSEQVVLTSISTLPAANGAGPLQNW", "conditions": "read-out: Human OxR2 FLIPR; cited from earlier work"}, "P-gp": {"target": "P-gp (Homo sapiens, UniProt P08183)", "sequence (P08183 whole entry)": "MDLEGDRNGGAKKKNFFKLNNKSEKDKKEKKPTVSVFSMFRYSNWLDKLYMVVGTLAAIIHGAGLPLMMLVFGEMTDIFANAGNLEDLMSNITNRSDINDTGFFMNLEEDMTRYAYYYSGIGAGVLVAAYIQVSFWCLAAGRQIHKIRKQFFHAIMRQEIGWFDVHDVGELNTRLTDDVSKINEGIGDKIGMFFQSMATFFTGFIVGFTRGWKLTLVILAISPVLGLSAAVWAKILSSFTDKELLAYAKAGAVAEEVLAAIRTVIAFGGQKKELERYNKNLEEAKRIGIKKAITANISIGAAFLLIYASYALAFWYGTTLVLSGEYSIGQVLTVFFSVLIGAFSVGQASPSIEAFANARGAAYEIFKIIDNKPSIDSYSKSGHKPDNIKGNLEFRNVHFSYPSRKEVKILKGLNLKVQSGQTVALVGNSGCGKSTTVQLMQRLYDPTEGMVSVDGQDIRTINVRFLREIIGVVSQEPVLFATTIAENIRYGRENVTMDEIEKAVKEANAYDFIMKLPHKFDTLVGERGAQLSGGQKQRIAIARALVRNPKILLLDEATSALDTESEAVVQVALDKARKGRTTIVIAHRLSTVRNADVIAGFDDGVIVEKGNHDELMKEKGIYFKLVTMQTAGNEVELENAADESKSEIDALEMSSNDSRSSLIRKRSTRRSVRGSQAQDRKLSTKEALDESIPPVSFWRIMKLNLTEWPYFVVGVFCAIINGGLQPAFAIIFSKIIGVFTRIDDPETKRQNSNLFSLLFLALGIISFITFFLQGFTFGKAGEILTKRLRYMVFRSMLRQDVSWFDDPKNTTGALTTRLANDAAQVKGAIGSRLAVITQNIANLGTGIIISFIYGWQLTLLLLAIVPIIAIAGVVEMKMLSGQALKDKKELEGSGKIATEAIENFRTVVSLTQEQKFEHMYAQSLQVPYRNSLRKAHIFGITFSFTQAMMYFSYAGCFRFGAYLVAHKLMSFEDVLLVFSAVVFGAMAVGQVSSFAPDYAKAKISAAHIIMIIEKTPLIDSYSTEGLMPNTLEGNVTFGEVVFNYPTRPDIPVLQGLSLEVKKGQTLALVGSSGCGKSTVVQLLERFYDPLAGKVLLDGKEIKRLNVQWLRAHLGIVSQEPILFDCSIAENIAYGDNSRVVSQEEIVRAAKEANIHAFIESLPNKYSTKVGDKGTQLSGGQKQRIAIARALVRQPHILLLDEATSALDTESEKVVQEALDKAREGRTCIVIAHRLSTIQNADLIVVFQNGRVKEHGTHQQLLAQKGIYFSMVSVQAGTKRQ", "conditions": "cited from earlier work"}, "[2]": {"conditions": "Bergman et al. 2008; cited from earlier work"}, "[3]": {"conditions": "100 mpk ip 30 min; cited from earlier work"}, "Wistar female rats [4]": {"tested_on": "Wistar female rats", "test": "Open-field test (OFT) in rats under shifted photoperiods", "quoted_text": "Activity was tested in open boxes (open-fields: 100 cm wide, 100 cm long, 50 cm high) made of PVC. Animals' activity was recorded by an electronic videotracking detection system (Viewpoint, France) allowing to detect the distance travelled and the time spent in different parts of the open-field.\nLight intensity was 7-10 Lux at the center of the open-fields.\nAnimals were individually placed for a 10-min session in the center of one quadrant of the open-field.\nParameters analyzed were: • 1) One parameter taken as an index of locomotor-exploratory behavior: • The distance travelled in the open-field. • 2) Two parameters taken as indices of anxiety behavior: • a) % Dist Cent=the percentage of distance travelled in the central 60×60 cm area of the open-field. • b) % Time cent=the percentage of time spent in the central 60×60 cm area of the open-field.\n(§1) A difference was considered: • 1) Statistically significant: p≦0.05. • 2) Close-to-significant difference: 0.05<p≦0.10. • 3) Not significant: p>0.10."}, "[5]": {"test": "Body weight / growth rate in rats under shifted photoperiods", "conditions": "for growth rate: SL-TCS vs SL-Veh, IP (FIGS. 25, 27); for Body weight in percent of initial body weight (d−4): short light (SL) rats, mean", "quoted_text": "Rats were weighed three times a week in order to examine the effect of L/D changes and the effects of treatments on the body weight.\nAnimals' body weight was recorded three days per week. The body weight on day d-4 was considered as the initial body weight.\nInitial body weight (BW) between recorded on day d-4, before the initiation of L/D change analyzed by 1-factor ANOVA and Student's t-test.\nTherefore, the following analyses were performed on the BW expressed in percentage of the initial BW. • 2) Effect of L/D condition:\nThe BW expressed in percentage of the initial BW was compared between by ANOVA for repeated measures (from day dl to day d54): • a) On C-Veh, LL-Veh and SL-Veh groups: overall effect. • b) On C-Veh and LL-Veh groups: effect of LL. • c) On C-Veh and SL-Veh groups: effect of SL. • d) On LL-Veh and SL-Veh groups: difference LL vs. SL. • 3) Effect of vehicle:"}, "Wistar female rats [6]": {"tested_on": "Wistar female rats", "test": "Forced swimming test (FST) in rats under shifted photoperiods", "conditions": "TCS 1102 20 mg/kg IP", "quoted_text": "Animals of CL and LL groups received the vehicles in the same conditions.\nThe same animals were tested by the same experimenter on the two FST sessions. The same proportion of animals of each group was tested by each experimenter.\nThe apparatus used for the experiment consisted of glass cylinders (64 cm high, 25 cm diameter) filled with 30 cm 25° C. water. The experiment was recorded with a camcorder, placed in front of the glass cylinder and connected to a screen, allowing the experimenter to watch the test online.\nLight intensity was 15-20 Lux at the level of glass cylinders.\nThe behavior of the rat was measured on the second trial.\nBehavior was classified as one of three behaviors: • 1) Immobility, defined as floating in the water without struggling and using only small movements to keep the head above water. • 2) Swimming, defined as moving limbs in an active manner, more than required to keep the head above water and causing movement among quadrants of the cylinder. • 3) Climbing, defined as making active movements with forepaws moving in and out of the water, usually directed against the side of the cylinder. Parameters analyzed were:\n1) Imo=the immobility time.\n2) Swm=the swimming time.\n3) Clb=the climbing time.\nA depressive-like profile is indicated by an increase of the immobility time and a decrease of either the swimming time or the climbing time. Conversely, an antidepressant-like effect is indicated by a decrease of the immobility time and an increase of either the swimming time or the climbing time.\nas §1"}, "Wistar female rats [7]": {"tested_on": "Wistar female rats", "test": "Elevated-plus maze (EPM) test in rats under shifted photoperiods", "conditions": "EPM", "excerpt": "Animals were subjected to the elevated-plus maze (EPM) test only once during the period of the study: at the 43th, 44th or 45th days of treatment (see Table 2).\nThe apparatus consisted of a plus-shaped maze, elevated 50 cm from the floor, with two opposite open arms, 50×10 cm, crossed at right angles by two arms of the same dimensions, but enclosed by 40-cm-high black opaque walls with an open roof. In addition a 1-cm-high edge made of Plexiglas surrounded the open arms to avoid falls.\nLight intensity was 10 Lux at the level of open arms.\nThe experiment was recorded with a camcorder, placed 1.5 m above the maze and connected to a screen, allowing the experimenter to watch the test online.\nAnimals were individually placed for a 5-min session in the center of the plus-maze. The number of arm entries and the time spent in arms were recorded. An arm entry is defined as all four paws into the arm.\nOther parameters were recorded: the time spent in open arms, the number of open arm entries, the time spent in enclosed arms, the number of enclosed arm entries and the time spent in the center of the maze.\n1) Enclosed arm entries: entries into the protected arms of the EPM\nas §1"}, "[8]": {"conditions": "OFT first session, SL-TCS vs SL-DMSO, 20 mg/kg IP"}, "[9]": {"conditions": "OFT first session, Short Light rats, TCS 20 mg/kg IP daily, group mean"}, "[10]": {"conditions": "OFT first session, TCS 1102 20 mg/kg IP"}, "[11]": {"conditions": "OFT reanalysis, SL rats, IP TCS 1102"}, "[12]": {"conditions": "SL-TCS vs SL-DMSO, 20 mg/kg IP, 20 mg/kg"}, "[13]": {"conditions": "short light (SL) rats, group mean, DMSO vehicle comparison groups"}},
  "note": "“Also recorded” adds a separate entry of the source.",
  "data": [
    {"smiles": "Cn1c(SCC(=O)N2CCC[C@H]2C(=O)Nc2ccccc2-c2ccccc2)nc2ccccc21", "note": "[TCS 1102]", "values": [
      {"measurement": "symptoms after IP injection", "setting": "Wistar female rats [1]", "value": "Abdominal contractions lasting 10-20 sec"},
      {"measurement": "IC50", "setting": "OxR2", "value": 4, "unit": "nM"},
      {"measurement": "P-gp (B to A/A to B)", "setting": "P-gp", "value": 1.4},
      {"measurement": "rat in vivo half life", "setting": "[2]", "value": "around 0.3 hours"},
      {"measurement": "Brain level", "setting": "[3]", "value": 2370, "unit": "nM"},
      {"measurement": "CSF level", "setting": "[3]", "value": 43, "unit": "nM"},
      {"measurement": "plasma level", "setting": "[3]", "value": 3500, "unit": "nM"},
      {"measurement": "effect on the % Time Center", "setting": "Wistar female rats [4]; [8]", "value": "Tended to increase"},
      {"measurement": "effect on the Distance", "setting": "Wistar female rats [4]; [8]", "value": "Did not significantly modify"},
      {"measurement": "effect on the % Dist Center", "setting": "Wistar female rats [4]; OFT first session, SL-TCS vs SL-DMSO, 20 mg/kg IP, 20 mg/kg", "value": "reduced the decrease; also recorded: Increased"},
      {"measurement": "% Dist Cent", "setting": "Wistar female rats [4]; [9]", "value": 11.3, "unit": "%"},
      {"measurement": "% Time Cent", "setting": "Wistar female rats [4]; [9]", "value": 7.4, "unit": "%"},
      {"measurement": "Distance travelled", "setting": "Wistar female rats [4]; [9]", "value": 8505.8, "unit": "cm"},
      {"measurement": "anxiogenic-like effect of short light duration", "setting": "Wistar female rats [4]; [10]", "value": "reduced the anxiogenic-like effect of short light duration"},
      {"measurement": "motor exploratory activity", "setting": "Wistar female rats [4]; [10]", "value": "did not modify"},
      {"measurement": "another parameter of exploratory behavior (FIGS. 5 and 6, hyper center)", "setting": "Wistar female rats [4]; [11]", "value": "similarly treated"},
      {"measurement": "exploratory behaviors (FIG. 4)", "setting": "Wistar female rats [4]; [11]", "value": "treated with statistical significance"},
      {"measurement": "thigmotactic anxiety-like behaviors (FIG. 3)", "setting": "Wistar female rats [4]; [11]", "value": "treated fully and with statistical significance"},
      {"measurement": "growth rate", "setting": "[5]", "value": "consistently increased the growth rate"},
      {"measurement": "growth rate", "setting": "[5]; listed as TCS", "value": "lessened the SL-induced low growth rate"},
      {"measurement": "body weight", "setting": "[5]; TCS 1102 20 mg/kg IP, SL rats", "value": "no significant effect"},
      {"measurement": "Body weight in percent of initial body weight (d−4)", "setting": "[5]; d29-t1, during treatment", "value": 162.1, "unit": "%"},
      {"measurement": "Body weight in percent of initial body weight (d−4)", "setting": "[5]; d31-t3, during treatment", "value": 161.0, "unit": "%"},
      {"measurement": "Body weight in percent of initial body weight (d−4)", "setting": "[5]; d33-t5, during treatment", "value": 165.8, "unit": "%"},
      {"measurement": "Body weight in percent of initial body weight (d−4)", "setting": "[5]; d36-t8, during treatment", "value": 168.2, "unit": "%"},
      {"measurement": "Body weight in percent of initial body weight (d−4)", "setting": "[5]; d38-t10, during treatment", "value": 169.5, "unit": "%"},
      {"measurement": "Body weight in percent of initial body weight (d−4)", "setting": "[5]; d40-t12, during treatment", "value": 168.9, "unit": "%"},
      {"measurement": "Body weight in percent of initial body weight (d−4)", "setting": "[5]; d43-t15, during treatment", "value": 171.4, "unit": "%"},
      {"measurement": "Body weight in percent of initial body weight (d−4)", "setting": "[5]; d45-t17, during treatment", "value": 172.9, "unit": "%"},
      {"measurement": "Body weight in percent of initial body weight (d−4)", "setting": "[5]; d47-t19, during treatment", "value": 173.2, "unit": "%"},
      {"measurement": "Body weight in percent of initial body weight (d−4)", "setting": "[5]; d50-t22, during treatment", "value": 173.9, "unit": "%"},
      {"measurement": "Body weight in percent of initial body weight (d−4)", "setting": "[5]; d52-t24, during treatment", "value": 176.9, "unit": "%"},
      {"measurement": "Body weight in percent of initial body weight (d−4)", "setting": "[5]; d54-t26, during treatment", "value": 174.7, "unit": "%"},
      {"measurement": "depression-related behavior in the FST", "setting": "Wistar female rats [6]", "value": "no significant effect"},
      {"measurement": "effect on the AE", "setting": "Wistar female rats [7]; SL-TCS vs SL-DMSO, 20 mg/kg IP", "value": "Did not significantly modify"},
      {"measurement": "effect on the % OAE", "setting": "Wistar female rats [7]; [12]", "value": "Tended to reduce the decrease; also recorded: Increased"},
      {"measurement": "effect on the % TOA", "setting": "Wistar female rats [7]; [12]", "value": "Did not significantly reduce the decrease; also recorded: Did not significantly modify"},
      {"measurement": "anxiogenic-like effect of short light duration", "setting": "Wistar female rats [7]; TCS 1102 20 mg/kg IP", "value": "tended to reduce"},
      {"measurement": "Number of arm entries (AE)", "setting": "Wistar female rats [7]; [13]", "value": 16.8},
      {"measurement": "Percentage of open arm entries (% OAE)", "setting": "Wistar female rats [7]; [13]", "value": 32.0, "unit": "%"},
      {"measurement": "Percentage of time spent in open arms (% TOA)", "setting": "Wistar female rats [7]; [13]", "value": 23.1, "unit": "%"}
    ]}
  ]
}
